Experimental data reported in the NIST ThermoML archive (doi:10.1021/je9005344).

Test: xn = mol fraction of the nth substance listed
Details: 101 kPa, Liquid; for speed of sound: Pulse-echo method; for mass density: Vibrating tube method

COCCO [2-methoxyethan-1-ol] + CCCCCCCCCCO
Details	mass density, 293.15 K [kg/m3]	mass density, 298.15 K [kg/m3]	mass density, 303.15 K [kg/m3]	mass density, 308.15 K [kg/m3]	speed of sound, 293.15 K [m/s]	speed of sound, 298.15 K [m/s]	speed of sound, 303.15 K [m/s]	speed of sound, 308.15 K [m/s]
x1 = 0.0606	832.95	829.505	826.05	822.58	1393.1	1375.9	1359	1342.2
x1 = 0.1173	835.952	832.457	828.982	825.482	1389.5	1372.4	1355.4	1338.6
x1 = 0.1631	838.564	835.06	831.539	828.008	1386.6	1369.5	1352.6	1335.8
x1 = 0.1934	840.414	836.878	833.342	829.786	1384.7	1367.5	1350.6	1333.8
x1 = 0.251	844.262	840.695	837.111	833.512	1380.8	1363.7	1346.8	1330
x1 = 0.3025	847.887	844.28	840.662	837.024	1377.5	1360.4	1343.5	1326.7
x1 = 0.413	856.97	853.268	849.553	845.819	1370.2	1353.1	1336.2	1319.4
x1 = 0.517	867.321	863.518	859.697	855.861	1363.6	1346.6	1329.6	1312.8
x1 = 0.6285	880.912	876.98	873.028	869.056	1356.6	1339.6	1322.6	1305.7
x1 = 0.7087	892.252	888.913	884.854	880.773	1352.5	1335.3	1318.4	1301.5
x1 = 0.7965	909.015	904.836	900.644	896.427	1349.5	1332.3	1315.3	1298.3
x1 = 0.9382	944.534	940.097	935.63	931.137	1352.5	1335.3	1318.2	1301.1
